Source: ChEMBL document CHEMBL5120817, “Quinone Derivatives as Promising Anti-Helicobacter pylori Agents from Aerial Parts of Mitracarpus hirtus” (2022)
Converted amounts (≈) assume the structure as drawn.

Tests used:
Format in all cases: functional
[1] = system: Helicobacter pylori; experiment: Antibacterial activity against multidrug resistant Helicobacter pylori G27 assessed as bacterial growth inhibition incubated for 3 days by broth microdilution method; conditions: G27, 72 h, time 3 day
[2] = system: Helicobacter pylori; experiment: Antibacterial activity against multidrug resistant Helicobacter pylori HP159 assessed as bacterial growth inhibition incubated for 3 days by broth microdilution method; conditions: HP159, 72 h, time 3 day
[3] = system: Helicobacter pylori; experiment: Antibacterial activity against multidrug resistant Helicobacter pylori JRES00015 assessed as bacterial growth inhibition incubated for 3 days by broth microdilution method; conditions: JRES00015, 72 h, time 3 day
[4] = system: Helicobacter pylori; experiment: Potency index, ratio of metronidazole MIC to test compound MIC for antibacterial activity against multidrug resistant Helicobacter pylori JRES00015
[5] = system: Helicobacter pylori; experiment: Antibiofilm activity against Helicobacter pylori G27 assessed as reduction in viable cells count at 4 times MIC
[6] = system: Helicobacter pylori; experiment: Antibiofilm activity against Helicobacter pylori G27 assessed as reduction in preformed bacterial biofilm at 4 times MIC by crystal violet staining based assay; parameters: scale not given: the % may be the effect or the level left
[7] = system: Helicobacter pylori; experiment: Antibiofilm activity against Helicobacter pylori G27 assessed as reduction in viable bacteria within biofilms at 0.25 ug/ml incubated for 20 hrs by alamar blue assay; conditions: dose 0.25 µg/ml

## COC(=O)c1ccc2c(c1)C(=O)c1cc(O)ccc1C2=O
[1]
  MIC: 2 µg/mL (≈ 7.09 µM)
[2]
  MIC: 4 µg/mL (≈ 14.2 µM)
[3]
  MIC: 2 µg/mL (≈ 7.09 µM)

## CO[C@H]1OCc2c(c(O[C@@H]3O[C@H](CO)[C@@H](O)[C@H](O)[C@H]3O)c3ccccc3c2O[C@@H]2O[C@H](C)[C@@H](O)[C@H](O)[C@H]2O)[C@@H]1O
[1]
  MIC: 64 µg/mL (≈ 112 µM)
[2]
  MIC: 64 µg/mL (≈ 112 µM)
[3]
  MIC: 32 µg/mL (≈ 56.1 µM)

## CO[C@@H]1Cc2c(c(O[C@@H]3O[C@H](CO)[C@@H](O)[C@H](O)[C@H]3O)c3ccccc3c2O[C@@H]2O[C@H](CO)[C@@H](O)[C@H](O)[C@H]2O)CO1
[1]
  MIC: > 64 µg/mL
[2]
  MIC: > 64 µg/mL
[3]
  MIC: > 64 µg/mL

## CC[C@H]1OC(=O)[C@H](C)[C@@H](O[C@H]2C[C@@](C)(OC)[C@@H](O)[C@H](C)O2)[C@H](C)[C@@H](O[C@@H]2O[C@H](C)C[C@H](N(C)C)[C@H]2O)[C@](C)(OC)C[C@@H](C)C(=O)[C@H](C)[C@@H](O)[C@]1(C)O [CLARITHROMYCIN]
[1]
  MIC: 0.008 µg/mL (≈ 0.0107 µM)
[2]
  MIC: 2 µg/mL (≈ 2.67 µM)
[3]
  MIC: 2 µg/mL (≈ 2.67 µM)

## O=C1C2=C(C(=O)c3ccccc31)C(O)OCC2 (stereo not given)
[1]
  MIC: 0.125 µg/mL (≈ 0.543 µM)
[2]
  MIC: 0.125 µg/mL (≈ 0.543 µM)
[4]
  Ratio: 512
[3]
  MIC: 0.0625 µg/mL (≈ 0.271 µM)

## Cc1ccc2c(c1)C(=O)c1cc(O)ccc1C2=O
[1]
  MIC: 8 µg/mL (≈ 33.6 µM)
[2]
  MIC: 8 µg/mL (≈ 33.6 µM)
[3]
  MIC: 16 µg/mL (≈ 67.2 µM)

## O=C1c2ccccc2C(=O)c2cc(CO)ccc21
[1]
  MIC: 8 µg/mL (≈ 33.6 µM)
[2]
  MIC: 8 µg/mL (≈ 33.6 µM)
[3]
  MIC: 8 µg/mL (≈ 33.6 µM)

## Cc1ncc([N+](=O)[O-])n1CCO [METRONIDAZOLE]
[1]
  MIC: 2 µg/mL (≈ 11.7 µM)
[2]
  MIC: 16 µg/mL (≈ 93.5 µM)
[5]
  Activity: 0.76 log10CFU/ml
[3]
  MIC: 32 µg/mL (≈ 187 µM)
[6]
  Activity: 33%

## COc1cc2c(cc1O)C(=O)c1cc(C)ccc1C2=O
[1]
  MIC: 16 µg/mL (≈ 59.6 µM)
[2]
  MIC: 8 µg/mL (≈ 29.8 µM)
[3]
  MIC: 16 µg/mL (≈ 59.6 µM)

## CO[C@H]1Cc2c(c(O[C@@H]3O[C@H](C)[C@@H](O)[C@H](O)[C@H]3O)c3ccccc3c2O[C@@H]2O[C@H](CO)[C@@H](O)[C@H](O)[C@H]2O)CO1
[1]
  MIC: > 64 µg/mL
[2]
  MIC: > 64 µg/mL
[3]
  MIC: > 64 µg/mL

## Cc1ccc2c(c1)C(=O)c1cc(O)c(O)cc1C2=O
[1]
  MIC: 32 µg/mL (≈ 126 µM)
[2]
  MIC: 32 µg/mL (≈ 126 µM)
[3]
  MIC: 32 µg/mL (≈ 126 µM)

## CO[C@H]1Cc2c(c(O[C@@H]3O[C@H](CO)[C@@H](O)[C@H](O)[C@H]3O)c3ccccc3c2O[C@@H]2O[C@H](CO)[C@@H](O)[C@H](O)[C@H]2O)CO1
[1]
  MIC: > 64 µg/mL
[2]
  MIC: > 64 µg/mL
[3]
  MIC: > 64 µg/mL

## C[C@H]1O[C@@H](Oc2c3c(c(O[C@@H]4O[C@H](CO)[C@@H](O)[C@H](O)[C@H]4O)c4ccccc24)C=COC3)[C@H](O)[C@@H](O)[C@@H]1O
[1]
  MIC: 32 µg/mL (≈ 61.2 µM)
[2]
  MIC: 32 µg/mL (≈ 61.2 µM)
[3]
  MIC: 32 µg/mL (≈ 61.2 µM)

## C[C@H]1COc2c(N3CCN(C)CC3)c(F)cc3c(=O)c(C(=O)O)cn1c23.C[C@H]1COc2c(N3CCN(C)CC3)c(F)cc3c(=O)c(C(=O)O)cn1c23.O [LEVOFLOXACIN]
[1]
  MIC: 0.25 µg/mL
[2]
  MIC: 8 µg/mL
[3]
  MIC: 16 µg/mL

## O=C1c2ccccc2C(=O)c2cnccc21
[1]
  MIC: 0.125 µg/mL (≈ 0.598 µM)
[2]
  MIC: 0.0625 µg/mL (≈ 0.299 µM)
[7]
  Activity: 100%
[4]
  Ratio: 512
[5]
  Activity: 4.65 log10CFU/ml
[3]
  MIC: 0.0625 µg/mL (≈ 0.299 µM)
[6]
  Activity: 51%

## CO[C@@H]1Cc2c(c(O[C@@H]3O[C@H](C)[C@@H](O)[C@H](O)[C@H]3O)c3ccccc3c2O[C@@H]2O[C@H](CO)[C@@H](O)[C@H](O)[C@H]2O)CO1
[1]
  MIC: 64 µg/mL (≈ 115 µM)
[2]
  MIC: 64 µg/mL (≈ 115 µM)
[3]
  MIC: 32 µg/mL (≈ 57.7 µM)

## COc1ccc2c(c1)C(=O)c1cc(CO)ccc1C2=O
[1]
  MIC: 8 µg/mL (≈ 29.8 µM)
[2]
  MIC: 8 µg/mL (≈ 29.8 µM)
[3]
  MIC: 8 µg/mL (≈ 29.8 µM)

## C/C(=C/Cc1c(C(=O)O)c(O[C@@H]2O[C@H](CO)[C@@H](O)[C@H](O)[C@H]2O)c2ccccc2c1O[C@@H]1O[C@H](CO)[C@@H](O)[C@H](O)[C@H]1O)CO
[1]
  MIC: > 64 µg/mL
[2]
  MIC: > 64 µg/mL
[3]
  MIC: > 64 µg/mL

## OC[C@H]1O[C@@H](Oc2c3c(c(O[C@@H]4O[C@H](CO)[C@@H](O)[C@H](O)[C@H]4O)c4ccccc24)COC=C3)[C@H](O)[C@@H](O)[C@@H]1O
[1]
  MIC: 32 µg/mL (≈ 59.4 µM)
[2]
  MIC: 32 µg/mL (≈ 59.4 µM)
[3]
  MIC: 32 µg/mL (≈ 59.4 µM)

## O=C(O)c1ccc2c(c1)C(=O)c1ccccc1C2=O
[1]
  MIC: 0.5 µg/mL (≈ 1.98 µM)
[2]
  MIC: 1 µg/mL (≈ 3.96 µM)
[3]
  MIC: 0.25 µg/mL (≈ 0.991 µM)

## OC[C@H]1O[C@@H](Oc2c3c(c(O[C@@H]4O[C@H](CO)[C@@H](O)[C@H](O)[C@H]4O)c4ccccc24)CC(O)OC3)[C@H](O)[C@@H](O)[C@@H]1O (stereo not given in full)
[1]
  MIC: > 64 µg/mL
[2]
  MIC: > 64 µg/mL
[3]
  MIC: > 64 µg/mL
